Test results taken from patent US20260022089A1, “QUINONE-DERIVED COMPOUNDS AND USE THEREOF AGAINST LEISHMANIA SPP” (Universidad de la Laguna, priority 2022, published 2026).
Converted amounts (≈) assume the structure as drawn. Like-named read-outs stand apart in the source and are kept apart here.

What was measured:
[1] = Toxicity against mouse cells, alamarBlue assay, 24 hours; assay type: cell-based; conditions: murine macrophages, read-out: Macrophage Toxicity CC50
Experimental: To assess toxicity, all compounds were evaluated against mouse cells for 24 hours by means of the alamarBlue assay. […] The higher the value of CC50, the greater the amount of compound required to damage mouse cells, therefore, the lower the toxicity of the compound.

[2] = system: Leishmania amazonensis promastigotes; test: Leishmanicidal activity, alamarBlue fluorescence, 72 hours incubation with promastigotes; assay type: cell-based; conditions: for SI (CC50/IC50): ratio of macrophage CC50 to L. amazonensis IC50
[3] = Leishmania amazonensis, promastigotes, 72 hours, alamarBlue, read-out: L. amazonensis IC50

Question: What does the source list for CCCCCCCCCCCCCCCCOP(=O)([O-])OCC[N+](C)(C)C [Miltefosine, miltefosine, reference compound]?
Answer: CC50 at 24 h [1]: 29.4 ± 1.25 µg/mL (≈ 72.2 µM); IC50 [2]: 2.64 µg/mL (≈ 6.48 µM); IC50 ([2]; Leishmania amazonensis, read-out: IC50): 2.64 µg/mL (≈ 6.48 µM); SI (CC50/IC50) [2]: 11.14

Question: For CC1=CC(=O)C(C23CC4CC(CC(C4)C2)C3)=CC1=O [SG-012, 2-((3r,5r,7r)-adamantane-1-yl)-5-methylcyclohexa-2,5-diene-1,4-dione], which CC50 at 24 h [1] is on record?
Answer: 0.78 ± 0.02 µg/mL (≈ 3.04 µM)

Question: What about the IC50 [2, 3] of the same molecule?
Answer: 0.08 ± 0.01 µg/mL (≈ 0.312 µM)

Question: What about the “SI (CC50/IC50)” value [2] of the same molecule?
Answer: 9.75

Question: Which results are given for CC1=CC(=O)C(C2CCCC2)=CC1=O [SG-005, 2-cyclopentyl-5-methylcyclohexa-2,5-diene-1,4-dione]?
Answer: CC50 at 24 h [1]: 0.72 ± 0.01 µg/mL (≈ 3.78 µM); IC50 [2, 3]: 0.13 ± 0.03 µg/mL (≈ 0.683 µM); SI (CC50/IC50) [2]: 5.50

Question: Which results are given for CC1=CC(=O)C=C(C2CCCCC2)C1=O [SG-007, 2-cyclohexyl-6-methylcyclohexa-2,5-diene-1,4-dione]?
Answer: CC50 at 24 h [1]: 0.52 ± 0.09 µg/mL (≈ 2.55 µM); IC50 [2, 3]: 0.07 ± 0.02 µg/mL (≈ 0.343 µM); SI (CC50/IC50) [2]: 7.40

Question: Which CC50 at 24 h [1] does the source give for CC1=CC(=O)C=C(C2CCCC2)C1=O [SG-003, 2-cyclopentyl-6-methylcyclohexa-2,5-diene-1,4-dione] here?
Answer: 4.53 ± 0.9 µg/mL (≈ 23.8 µM)

Question: And the IC50 [2, 3]?
Answer: 0.34 ± 0.01 µg/mL (≈ 1.79 µM)

Question: And the “SI (CC50/IC50)” value [2]?
Answer: 13.30

Question: With CCC(C)(C)C1=CC(=O)C(C)=CC1=O [SG-010, 2-methyl-5-(tert-pentyl)cyclohexa-2,5-diene-1,4-dione] as the molecule, how does the CC50 at 24 h [1] read?
Answer: 4.51 ± 0.47 µg/mL (≈ 23.5 µM)

Question: What about the IC50 [2, 3] of the same molecule?
Answer: 0.12 ± 0.02 µg/mL (≈ 0.624 µM)

Question: And the “SI (CC50/IC50)” value [2]?
Answer: 37.50

Question: And the leishmanicidal activity ([2]; statement in words)?
Answer: shows leishmanicidal activity

Question: Which CC50 at 24 h [1] does the source give for CCC(C)(CC)C1=CC(=O)C(C)=CC1=O [SG-011, 2-methyl-5-(3-methylpentan-3-yl)cyclohexa-2,5-diene-1,4-dione] here?
Answer: 12.3 ± 0.77 µg/mL (≈ 59.5 µM)

Question: What about the IC50 [2, 3] of the same molecule?
Answer: 0.89 ± 0.06 µg/mL (≈ 4.31 µM)

Question: And the “SI (CC50/IC50)” value [2]?
Answer: 13.80

Question: With CC1=CC(=O)C(C2CCCCC2)=CC1=O [SG-008, 2-cyclohexyl-5-methylcyclohexa-2,5-diene-1,4-dione] as the molecule, how does the CC50 at 24 h [1] read?
Answer: 2.55 ± 0.2 µg/mL (≈ 12.5 µM)

Question: What about the IC50 [2, 3] of the same molecule?
Answer: 0.06 ± 0.01 µg/mL (≈ 0.294 µM)

Question: What about the “SI (CC50/IC50)” value [2] of the same molecule?
Answer: 42.50

Question: What does the source list for CC1=CC(=O)C(C2CCCCCC2)=CC1=O [SG-013, 2-cycloheptyl-5-methylcyclohexa-2,5-diene-1,4-dione]?
Answer: CC50 at 24 h [1]: 0.92 ± 0.05 µg/mL (≈ 4.21 µM); IC50 [2, 3]: 0.09 µg/mL (≈ 0.412 µM); SI (CC50/IC50) [2]: 7.10

Question: Which CC50 at 24 h [1] does the source give for CC1=CC(=O)C=C(C2CCCCCC2)C1=O [SG-014, 2-cycloheptyl-6-methylcyclohexa-2,5-diene-1,4-dione] here?
Answer: 8.95 ± 1.75 µg/mL (≈ 41 µM)

Question: And the IC50 [2, 3]?
Answer: 0.7 ± 0.02 µg/mL (≈ 3.21 µM)

Question: What about the “SI (CC50/IC50)” value [2] of the same molecule?
Answer: 24.20
